# Structures can show the parent of a compound that is named as a salt. Where two headings read alike, the source gives them in different places.
# Legend:
# ATXN2-luc [1] = conditions: H2 cells
# ATXN2-luc [2] = assay: cells; conditions: for activity at 10 µM: read-out: Luc at 10 μm; for activity at 1 µM: read-out: Luc at 1 μm
# [3] = Table 1, 24 hrs, single 10 μM dose, Z-score of luciferase
Molecule,SD from Mean (ATXN2-luc [1]; [3]),activity at 10 µM (ATXN2-luc [2]),other results
Nc1c2ccccc2nc2ccccc12 [AMINACRINE],−4.103 SD,–,–
CN1CCN(CCCN2c3ccccc3Sc3ccc(C(F)(F)F)cc32)CC1 [TRIFLUOPERAZINE HYDROCHLORIDE],−5.856 SD,2%,"SD from Mean (ATXN2-luc [1]; Table 5S, pilot screen, 10 μM): −5.856 SD"
CO[C@H]1C[C@H](O[C@H]2CC[C@]3(C)[C@H]4CC[C@]5(C)[C@@H](C6=CC(=O)OC6)CC[C@]5(O)[C@@H]4CC[C@]3(O)C2)O[C@H](C)[C@H]1O [PERIPLOCYMARIN],−2.759 SD,17%,activity at 1 µM (ATXN2-luc [2]): 75%
Lycorine hydrochloride,−2.968 SD,–,–
C[C@H]1O[C@@H](O[C@H]2[C@@H](O)C[C@H](O[C@H]3[C@@H](O)C[C@H](O[C@H]4CC[C@@]5(C)[C@H](CC[C@@H]6[C@@H]5CC[C@]5(C)[C@@H](C7=CC(=O)OC7)CC[C@]65O)C4)O[C@@H]3C)O[C@@H]2C)C[C@H](O)[C@@H]1O [DIGITOXIN],−4.100 SD,19%,"activity at 1 µM (ATXN2-luc [2]): 27%; SD from Mean (ATXN2-luc [1]; Table 5S, pilot screen, 10 μM): −4.100 SD"
C[C@]12CC[C@H](O)C[C@H]1CC[C@@H]1[C@@H]2CC[C@]2(C)[C@@H](C3=CC(=O)OC3)CC[C@]12O [Digitoxigenin],−3.629 SD,13%,"activity at 1 µM (ATXN2-luc [2]): 38%; SD from Mean (ATXN2-luc [1]; Table 5S, pilot screen, 10 μM): −3.629 SD"
COc1ccc(C[C@H](N)C(=O)N[C@H]2[C@@H](O)[C@H](n3cnc4c(N(C)C)ncnc43)O[C@@H]2CO)cc1 [Puromycin dihydrochloride],–,–,"SD from Mean (ATXN2-luc [1]; Table 1, 24 hrs, single 10 μM dose, Z-score of luciferase, dihydrochloride): −4.723 SD"
[H]/N=C(/NCCCCC)N/N=C/c1c[nH]c2ccc(OC)cc12 [TEGASEROD MALEATE],−3.606 SD,8%,–
C[C@H]1O[C@@H](O[C@H]2[C@@H](O)C[C@H](O[C@H]3[C@@H](O)C[C@H](O[C@H]4CC[C@@]5(C)[C@H](CC[C@@H]6[C@@H]5CC[C@]5(C)[C@@H](C7=CC(=O)OC7)[C@@H](O)C[C@]65O)C4)O[C@@H]3C)O[C@@H]2C)C[C@H](O)[C@@H]1O [GITOXIN],−4.086 SD,12%,"activity at 1 µM (ATXN2-luc [2]): 21%; SD from Mean (ATXN2-luc [1]; Table 5S, pilot screen, 10 μM): −4.086 SD"
CO[C@H]1[C@H](O)[C@H](O[C@H]2CC[C@@]3(C)[C@H](CC[C@@H]4[C@@H]3CC[C@]3(C)[C@@H](C5=CC(=O)OC5)CC[C@]43O)C2)O[C@@H](C)[C@@H]1O [NERIIFOLIN],−3.045 SD,17%,activity at 1 µM (ATXN2-luc [2]): 17%
COc1cccc2c1C(=O)c1c(O)c3c(c(O)c1C2=O)C[C@@](O)(C(C)=O)C[C@@H]3O[C@H]1C[C@H](N)[C@H](O)[C@H](C)O1 [Daunorubicin hydrochloride],−4.155 SD,–,–
CC(=O)[C@]1(O)Cc2c(O)c3c(c(O)c2[C@@H](O[C@H]2C[C@H](N)[C@H](O)[C@H](C)O2)C1)C(=O)c1ccccc1C3=O [IDARUBICIN HCl],–,–,"SD from Mean (ATXN2-luc [1]; Table 1, 24 hrs, single 10 μM dose, Z-score of luciferase, HCl): −2.944 SD"
CC[C@@]1(O)C[C@H](O)c2c(cc3c(c2O)C(=O)c2c(O)ccc(O)c2C3=O)[C@H]1C(=O)OC [RUTILANTINONE],−2.722 SD,–,–
CO[C@H]1C=C[C@@]23c4cc5c(cc4CN(C[C@@H]2O)[C@H]3C1)OCO5 [CRINAMINE],−3.651 SD,–,–
C[C@H]1CC[C@]2(NC1)O[C@H]1C[C@H]3[C@@H]4CC[C@H]5C[C@@H](O[C@@H]6O[C@H](CO)[C@H](O[C@@H]7O[C@H](CO)[C@@H](O)[C@H](O[C@@H]8OC[C@@H](O)[C@H](O)[C@H]8O)[C@H]7O[C@@H]7O[C@H](CO)[C@@H](O)[C@H](O)[C@H]7O)[C@H](O)[C@H]6O)CC[C@]5(C)[C@H]4CC[C@]3(C)[C@H]1[C@@H]2C [TOMATINE],−4.999 SD,–,–
O=C1c2c(O)ccc(O)c2C(=O)c2c(NCCNCCO)ccc(NCCNCCO)c21 [Mitoxantrone dihydrochloride],−3.666 SD,–,–
CC(=O)[C@]1(O)Cc2c(O)c3c(c(O)c2[C@@H](O[C@H]2C[C@H](N)[C@H](O)[C@H](C)O2)C1)C(=O)c1ccccc1C3=O [IDARUBICIN],−2.719 SD,–,–
CC(=O)O[C@@H]1C[C@@]2(C)[C@H](c3ccoc3)C[C@H]3O[C@]32[C@]2(C)C(=O)C(O)=C3C(C)(C)C(=O)C=C[C@]3(C)[C@@H]12 [ANTHOTHECOL],−3.020 SD,–,–
Cc1c2ccncc2c(C)c2c1[nH]c1ccccc12 [Ellipticine],−3.485 SD,–,–
COc1ccc(C[C@H](N)C(=O)N[C@H]2[C@@H](O)[C@H](n3cnc4c(N(C)C)ncnc43)O[C@@H]2CO)cc1 [PUROMYCIN HYDROCHLORIDE],–,–,"SD from Mean (ATXN2-luc [1]; Table 1, 24 hrs, single 10 μM dose, Z-score of luciferase, HYDROCHLORIDE): −3.716 SD"
CC[C@@]1(O)C(=O)OCc2c1cc1n(c2=O)Cc2cc3ccccc3nc2-1 [Camptothecine (S+)],−5.283 SD,–,–
COc1ccc(CCCOC(Cn2ccnc2)c2ccc(OC)cc2)cc1 (stereo not drawn) [SKF-96365],−2.721 SD,57%,"activity at 1 µM (ATXN2-luc [2]): 104%; SD from Mean (ATXN2-luc [1]; Table 5S, pilot screen, 10 μM): −2.721 SD"
Cl.Cl.O=C1c2c(O)ccc(O)c2C(=O)c2c(NCCNCCO)ccc(NCCNCCO)c21 [MITOXANTHRONE HYDROCHLORIDE],−4.333 SD,–,–
O=C(Nc1ccc([N+](=O)[O-])cc1Cl)c1cc(Cl)ccc1O [Niclosamide],−4.393 SD,–,–
CC(=O)Oc1cccc(O)c1 [RESORCINOL MONOACETATE],−6.242 SD,5%,"activity at 1 µM (ATXN2-luc [2]): 120%; SD from Mean (ATXN2-luc [1]; Table 5S, pilot screen, 10 μM): −6.242 SD"
CC(N/C(=N\C#N)Nc1ccncc1)C(C)(C)C (stereo not drawn),−4.875 SD,17%,"SD from Mean (ATXN2-luc [1]; Table 5S, pilot screen, 10 μM): −4.875 SD"

Molecule,SD from Mean (ATXN2-luc [1]; [3]),activity at 10 µM (ATXN2-luc [2]),other results
CC[C@H]1CN2CCc3cc(OC)c(OC)cc3[C@@H]2C[C@@H]1C[C@H]1NCCc2cc(OC)c(OC)cc21 [Emetine dihydrochloride],−4.840 SD,19%,"activity at 1 µM (ATXN2-luc [2]): 18%; SD from Mean (ATXN2-luc [1]; Table 5S, pilot screen, 10 μM): −4.840 SD"
COc1cccc(C2(O)CCCCC2CN(C)C)c1 (stereo not drawn) [Tramadol],−3.415 SD,134%,–
CC(C)[N+](C)(CCC(C(N)=O)(c1ccccc1)c1ccccc1)C(C)C [ISOPROPAMIDE IODIDE],−4.073 SD,–,–
O=C1C=C2C(=CCOC2O)O1 (stereo not drawn) [PATULIN],−3.651 SD,–,–
COc1cc(/C=C/C(=O)N2CCC=CC2=O)cc(OC)c1OC [Piperlongumine],−2.973 SD,–,–
CC(C)/N=c1\cc2n(-c3ccc(Cl)cc3)c3ccccc3nc-2cc1Nc1ccc(Cl)cc1 [CLOFAZIMINE],−2.792 SD,–,–
O=c1[nH]c(=O)n([C@H]2C[C@H](O)[C@@H](CO)O2)cc1C(F)(F)F [Trifluridine],−5.158 SD,71%,"SD from Mean (ATXN2-luc [1]; Table 5S, pilot screen, 10 μM): −5.158 SD"
COC(=O)C[C@](O)(CCCC(C)(C)O)C(=O)O[C@@H]1C(OC)=C[C@]23CCCN2CCc2cc4c(cc2[C@H]13)OCO4 [HOMOHARRINGTONINE],−3.117 SD,–,–
COc1ccc(C[C@H]2NC[C@H](O)[C@H]2OC(C)=O)cc1 [Anisomycin],−4.015 SD,–,–
C[C@@H]1O[C@@H](O[C@H]2C[C@@H](O)[C@]3(CO)[C@@H]4[C@@H](O)C[C@]5(C)[C@H](C6=CC(=O)OC6)CC[C@@]5(O)[C@H]4CC[C@]3(O)C2)[C@H](O)[C@H](O)[C@@H]1O [Strophantine octahydrate],−3.624 SD,–,–
THIMEROSAL,−5.645 SD,–,–
CCCCCCc1ccc(O)cc1O.Nc1c2ccccc2nc2ccccc12 [ACRISORCIN],−3.600 SD,–,–
CC[C@@]1(O)C[C@H](O[C@H]2C[C@H](N(C)C)[C@H](O)[C@H](C)O2)c2c(cc3c(c2O)C(=O)c2c(O)cccc2C3=O)[C@H]1C(=O)OC [AKLAVINE HYDROCHLORIDE],−3.741 SD,–,–
"C[n+]1c2cc(N)ccc2cc2ccc(N)cc21.[Cl-] [ACRIFLA VINIUM HYDROCHLORIDE, ACRIFLAVINIUM HYDROCHLORIDE]",−4.148 SD,–,–
CNC1CC(c2ccc(Cl)c(Cl)c2)c2ccccc21 (stereo not drawn) [Indatraline],–,6%,–
C[C@]12CC[C@H](O)C[C@H]1CC[C@@H]1[C@@H]2C[C@@H](O)[C@]2(C)[C@@H](C3=CC(=O)OC3)CC[C@]12O [Digoxigenin],−3.264 SD,22%,"activity at 1 µM (ATXN2-luc [2]): 90%; SD from Mean (ATXN2-luc [1]; Table 5S, pilot screen, 10 μM): −3.264 SD"
CO[C@H]1C[C@H](O[C@H]2CC[C@]3(C=O)[C@H]4CC[C@]5(C)[C@@H](C6=CC(=O)OC6)CC[C@]5(O)[C@@H]4CC[C@]3(O)C2)O[C@H](C)[C@H]1O [CYMARIN],−4.099 SD,16%,"activity at 1 µM (ATXN2-luc [2]): 14%; SD from Mean (ATXN2-luc [1]; Table 5S, pilot screen, 10 μM): −4.099 SD"
COc1cc([C@@H]2c3cc4c(cc3[C@@H](O[C@@H]3O[C@@H]5CO[C@@H](c6cccs6)O[C@H]5[C@H](O)[C@H]3O)[C@H]3COC(=O)[C@H]23)OCO4)cc(OC)c1O [TENIPOSIDE],−2.832 SD,–,–
N=c1ccn2c(n1)O[C@H]1[C@H](O)[C@@H](CO)O[C@H]12 [ANCITABINE HYDROCHLORIDE],−3.031 SD,–,–
Nc1ccn([C@@H]2O[C@H](CO)[C@@H](O)[C@@H]2O)c(=O)n1 [CYTARABINE],−3.681 SD,–,–
CC(C)=CCC[C@]1(C)C=Cc2c(O)c3c(c(CC=C(C)C)c2O1)O[C@]12C(=C[C@@H]4C[C@H]1C(C)(C)O[C@@]2(C/C=C(/C)C(=O)O)C4=O)C3=O [GAMBOGIC ACID],−4.841 SD,–,–
CCN(CC)CCCC(C)Nc1c2ccc(Cl)cc2nc2ccc(OC)cc12 (stereo not drawn) [Quinacrine dihydrochloride dihydrate],−3.270 SD,–,–
O=C1C=CC(=O)c2ccccc21 [4-NAPHTHOQUINONE],−3.613 SD,–,–
N=C1C=CC(=C(c2ccc(N)cc2)c2ccc(N)cc2)C=C1 [PARAROSANILINE PAMOATE],−2.740 SD,–,–
COC(=O)[C@]1(C)CC[C@]2(C)CC[C@]3(C)C4=CC=C5C(=CC(=O)C(O)=C5C)[C@]4(C)CC[C@@]3(C)[C@@H]2C1 [PRISTIMERIN],−3.883 SD,–,–
